Laboratory results taken from patent US8580579B2, “Hydrophilic and lipophilic rhodamines for labelling and imaging” (Max-Planck-Gesellschaft zur Foerderung der Wissenschaften …, priority 2009, dated 2013).
“Also recorded” adds a separate entry of the source. Where two headings read alike, the source gives them in different places.

Assays:
[1] = cited from earlier work
[2] = cited from earlier work; for Φfl: no solvent given in the cell
[3] = Solubility and polarity of the dyes
[4] = UV-visible absorption and fluorescence spectra of the dyes of the invention; type: physicochemical; conditions: solvent MeOH
Protocol: UV-visible absorption spectra were recorded on a Varian Cary 4000 UV-Vis spectrophotometer, and fluorescence spectra on a Varian Cary Eclipse fluorescence spectrophotometer. Reactions were carried out upon magnetic stirring in Schlenk flasks equipped with septa or reflux condensers with bubble-counters under argon using a standard manifold with vacuum and argon lines. All NMR spectra are referenced to tetramethylsilane as an internal standard (δ=0 ppm) using the signals of the residual protons of CHCl3 (7.26 ppm) in CDCl3, CHD2OD (3.31 ppm) in CD3OD, HOD (4.75 ppm) in D2O, [D5]acetone (2.04 ppm) in [D6]acetone or [D5]DMSO (2.50 ppm) in [D6]DMSO. Multiplicities of signals are described as follows: s=singlet, br. s=broad singlet, d=doublet, t=triplet, q=quartet, quint=quintet, m=multiplet, mc=centrosymmetrical multiplet. Coupling constants (J) are given in Hz. Multiplicities in the ^13C NMR spectra were determined by APT (Attached Proton Test) measurements. Low resolution mass spectra (electro spray ionization, ESI) were obtained with LCQ and ESI-TOF mass-spectrometers (MICROTOF (focus), Fa. Bruker). The MICROTOF spectrometer equipped with ESI ion source Apollo and direct injector with LC autosampler Agilent RR 1200 was used for obtaining high resolution mass spectra (ESI-HRMS). ESI-HRMS were obtained also on APEX IV spectrometer (Bruker). HPLC system (Knauer): Smartline pump 1000 (2×), UV detector 2500, column thermostat 4000 (25° C.), mixing chamber, injection valve with 20 and 100 μL loop for the analytical and preparative columns, respectively; 6-port-3-channel switching valve; analytical column: Eurospher-100 C18, 5 μm, 250×4 mm, 1.1 mL/min; preparative column: Eurospher-100-5 C18, 5 μm, 250×8 mm, 3.7 mL/min; solvent A: water+0.1% v/v trifluoroacetic acid (TFA); solvent B: MeCN+0.1% v/v TFA; detection at 636 nm (if not stated otherwise). Normal phase analytical TLC was performed on MERCK ready-to-use plates with silica gel 60 (F254) and reversed phase TLC—on RP-18W/UV254 precoated TLC plates (Macherey-Nagel). Preparative TLC was performed on MERCK HPTLC silica gel 60 plates (10×10 cm, layer thickness 0.2 mm). Column chromatography: MERCK silica gel, grade 60, 0.04-0.063 mm or Polygoprep 60-50 C18 (Macherey-Nagel).

SMILES | Solubility (solvents) [1] | τfl ([2]; H2O) | ε · 10^−5 ([2]; solvent EtOH) | λmax (abs.) ([2]; solvent EtOH) | λmax (fl.) ([2]; solvent EtOH) | λmax (abs.) ([2]; solvent H2O) | λmax (fl.) ([2]; solvent H2O) | other results
O=C(O)CCCCCNC(=O)COc1ccc(/C=C/C2=[N+]3C(=Cc4ccc(-c5cccs5)n4[B-]3(F)F)C=C2)cc1 [BODIPY ® 630/650] | DMSO, MeCN | 3.9 (H2O) ns | – | – | – | – | – | τfl ([2]; EtOH): 4.4 (EtOH)^1 ns; Φfl [2]: “good”; ε · 10^−5 ([2]; solvent MeOH): 1.01 M^−1 cm^−1; λmax (abs.) ([2]; solvent MeOH): 625 nm; λmax (fl.) ([2]; solvent MeOH): 640 nm
COC(=O)c1c(F)c(F)c(F)c(F)c1C1=c2cc3c4c(c2Oc2c1cc1c5c2CCCN5C(C)(C)C=C1C)CCC[N+]=4C(C)(C)C=C3 [Compound 7] | – | – | – | – | – | – | – | Solubility (solvents) [3]: CHCl3, THF; polarity [3]: non-polar; λmax (abs.) [4]: 632 nm; λmax (fl.) [4]: 655.5 nm
CCN(CC)c1ccc2c(C=CC=C3N(CCCCCC(=O)O)c4ccc(S(=O)(=O)[O-])cc4C3(C)C)cc(C(C)(C)C)[o+]c2c1 [DY-630] | MeOH, EtOH,; also recorded: DMF, DMSO | 0.21 ns | 2.0 M^−1 cm^−1 | 636 nm | 657 nm | 627^1 nm | 651^1 nm | Φfl [2]: Varies^6
CC[N+](CC)=c1ccc2c(/C=C/C=C3/N(CCCS(=O)(=O)[O-])c4ccc(S(=O)(=O)[O-])cc4C3(C)CCCC(=O)O)cc(C(C)(C)C)oc-2c1.[Na+] (centres unmarked) [DY-631] | H2O, MeOH,; also recorded: DMF, DMSO | – | 2.0 M^−1 cm^−1 | – | – | – | – | –
CC[N+](CCCS(=O)(=O)[O-])=c1ccc2c(C=CC=C3N(CCCCCC(=O)O)c4ccc(S(=O)(=O)[O-])cc4C3(C)C)cc(C(C)(C)C)oc-2c1.[Na+] [DY-633] | H2O, MeOH,; also recorded: DMF, DMSO | – | 2.0 M^−1 cm^−1 | – | – | – | – | –
CC(C)(C)c1cc(C=CC=C2N(CCCC(=O)O)c3ccc(S(=O)(=O)[O-])cc3C2(C)CCCS(=O)(=O)[O-])c2ccc(=[N+](CCCS(=O)(=O)[O-])CCCS(=O)(=O)[O-])cc-2o1.[Na+].[Na+].[Na+] (centres unmarked) [DY-634] | H2O, MeOH,; also recorded: DMF, DMSO | – | 2.0 M^−1 cm^−1 | – | – | – | – | –
CC(C)(C)c1cc(C=CC=C2N(CCCCCC(=O)O)c3ccc(S(=O)(=O)[O-])cc3C2(C)C)c2cc3c4c(c2[o+]1)CCCN4CCC3 [DY-635] | MeOH, EtOH,; also recorded: DMF, DMSO | 0.48 ns | 2.0 M^−1 cm^−1 | 647 nm | 671 nm | 635^1 nm | 669^1 nm | –
CC(C)(C)C1=CC(=CC=CC2=[N+](CCCS(=O)(=O)[O-])c3ccc(S(=O)(=O)[O-])cc3C2(C)CCCC(=O)O)c2cc3c4c(c2O1)CCCN4CCC3.[Na+] (centres unmarked) [DY-636] | H2O, EtOH,; also recorded: DMF, DMSO | – | 2.0 M^−1 cm^−1 | 645 nm | 671 nm | – | – | –
CCN1c2cc3[o+]c(C(C)(C)C)cc(C=CC=C4N(CCCCCC(=O)O)c5ccc(S(=O)(=O)[O-])cc5C4(C)C)c3cc2C(C)=CC1(C)C [DY-650] | MeOH, EtOH,; also recorded: DMF, DMSO | 0.64 (H2O)^1 ns | 2.2 M^−1 cm^−1 | 653 nm | 674 nm | 646^1 nm | 670 nm | –
CCN(CCCS(=O)(=O)[O-])c1ccc2nc3ccc(=[N+](C)CCC(=O)O)cc-3oc2c1 [Evoblue 30] | H2O, MeOH,; also recorded: DMF, DMSO | 0.64 (H2O)^1 ns | 1.0 M^−1 cm^−1 | 647 nm | 664 nm | 650^1 nm | 667^1 nm | –
